Assay results as given in patent publication US6753323B2, “Topical administration of amifostine and related compounds” (MedImmune Oncology, Inc., priority 1998, dated 2004).

Assays:
[1] = test system: bacteria, yeast and mold; assay: USP 23 Antimicrobial Preservatives-Effectiveness test, overall; type: cell-based; settings: each of the tested microorganisms, 28 day test
Procedure: WR-1065 was evaluated according to a protocol based on the “Antimicrobial Preservatives-Effectiveness” Test, outlined in the United States Pharmaeopeia, 23rd ed. (1995).
Prior to inoculation of the test article, a 1:10 dilution is prepared in diluent and 1.0 mL is plated. Additional serial dilutions are prepared and plated as necessary. Two separate sets are prepared as above. One set is prepared for bacteria counts, and one set is prepared for yeast/mold counts.
Enumeration of viable bacterial and fungal populations in the inoculated test article is conducted at 7, 14, 21 and 28 days post inoculation. At each time interval, a 1.0 g (or mL) specimen is removed from each inoculated specimen and plate counts are obtained by preparing serial dilutions in 9 mL tubes of diluent and plating aliquots from each dilution. Following incubation, plates are observed and the CFU's are enumerated. The number obtained is multiplied by the dilution factor to give the number of viable organisms per g (or mL) of test article at each time interval. At each time interval, the inoculated product is examined and any changes observed in the appearance of the test article during the challenge period are recorded. […]

[2] = test system: hair matrix cells; settings: topical 0.3 mg in 0.2 mL Ringer's solution on depilated mouse skin before fractionated irradiation; cited from earlier work
[3] = Solubility of WR-1065 salts in various solvents; type: physicochemical; settings: Water
Procedure: As mentioned above, salts of amifostine and related compounds are included within the scope of the invention. […] Several salts of WR-1065 were prepared, and their solubility in various solvents was measured.

Compound | preservative efficacy according to USP 23 criteria [1] | protection of hair matrix cells from radiation-induced injury [2] | Est. Solubitity HPLC Assay ([3]; as salt) | Est. Solubitity HPLC Assay ([3]; expressed as free base)
NCCCNCCS [WR-1065, S-2-(3-aminopropylamino) ethanethiol] | effective preservative | some effectiveness |  | 
Cl.Cl.NCCCNCCS [di-HCl] |  |  | 849 mg/mL | 550 mg/mL
